The nature of the data set: Influence of reaction temperature on stability of Re186-HEDP during storage at ambient temperature. It is filed as physicochemical.

Regarding “rhenium-186 labelled 1-hydroxyethylidene diphosphonate [Re186-HEDP]”, under “labelling by heating 15 minutes in a boiling water bath (just below 100° C.), t=0”, the “Re186-HEDP content at t=0” value worked out at 99.12%. Where the note is “labelling by heating 15 minutes in a boiling water bath, storage at ambient temperature, t=24 h”, the “Re186-HEDP content at t=24 h” value is 93.72%.
